{"source": "patent US8404790B2", "about": "“Aqueous emulsion polymerization process for producing fluoropolymers” (3M Innovative Properties Company, priority 2005, dated 2013)", "test": "Determination of bio-accumulation: urinary clearance pharmacokinetic study in rats", "conditions": "oral gavage", "protocol": "The fluorinated surfactants were evaluated for urinary clearance using a pharmacokinetic study in rats. The goal was to measure the total amount of parent compound eliminated via urinary output and estimate the rate of elimination.\nThe study utilized male Sprague Dawley rats, 6 to 8 weeks of age, and approximately 200 to 250 g body weight at study onset. The test compounds of table 2 were administered at a dose of 73 micromoles per kg body weight in rats (N=3 animals per tested compound). All test compounds were prepared in sterile deionized water and given to rats via oral gavage. After test compounds administration, the rats were housed individually in metabolism cages for urine collection: 0 to 6 hours, 6 to 24 hours, 24 to 48 hours and 72 to 96 hours. Animals were observed throughout the study for clinical signs of toxicity. Gross necropsy was performed at the termination of each study (96 hours post-dose) with sera and liver samples being retained from each animal\nThe concentration of the parent compound or metabolites thereof were quantitatively measured via fluorine NMR on each urine sample for each animal at each time point based on internally added standards."}
{"compound": "O=C(O)C(F)(F)OC(F)(F)OC(F)(F)OC(F)(F)OC(F)(F)F", "note": "[Compound 1, perfluoro-3,5,7,9-tetraoxadecanoic acid (CF3—(OCF2)4—COOH)]", "values": [{"measurement": "T½ (renal elimination half-life)", "setting": "73 micromoles per kg body weight, urine, fluorine NMR, exponential least squares curve fitting", "value": 15, "unit": "h"}, {"measurement": "% Recovery (96 h)", "setting": "73 micromoles per kg, recovery of administered amount in urine after 96 h", "value": 50, "unit": "%"}]}
